Test results from US5256686A, “Phenylalkan(en)oic acid” (Ono Pharmaceutical Co., Ltd., priority 1989, dated 1993).

What was measured:
Human PMNLs = assay: Inhibition of human PMNLs aggregation (LTB4-induced); format: cell-based; conditions: PMNL, LTB4 10^-8 M solution, 3 min preincubation at 37° C., pH 7.4
Method: ii) Inhibition of Human PMNLs aggregation
The purified human PMNLs were suspended in Hank's-0.5% BSA medium (pH 7.4) at 1×10^7 cells/ml. The PMNLs suspentions (200 μl) were preincubated with varying concentrations of tasted compounds for 3 min at 37° C. prior to the addition of 10^-8 M solution ([…]) of LTB4 in Hank's solution. PMNLs aggregation in vitro was performed with a multichannel platelet aggregometer. Aggregation was detected as change in light transmission with an aggregometer.

[1] = Acute toxicity (LD50) in mouse; conditions: in vivo
Description: It was confirmed that the toxicity of the compounds, of the present invention were very low. […] Accordingly, it was confirmed that the compounds of the present invention were useful for pharmaceutical agent.

human PMNL LTB4 receptor = target: T1, human PMNL LTB4 receptor (Homo sapiens, UniProt Q15722); assay: Binding affinity of 3H-LTB4 antagonist to human PMNL LTB4 receptor (inhibition of specific 3H-LTB4 binding); conditions: 1 nM 3H-LTB4, human PMNLs, 4° C., 20 min
T1 construct: endogenous in cells; host or cells: human polymorphonuclear leukocytes (PMNL), intact cells
Method: Human PMNLS (1×10^7 cells) were incubated with 1 nM ^3 H-LTB4 in Hanks balanced salt solution (1 ml) at 4° C. for 20 min. in the presence or absence of increasing concentrations of unlabeled LTB4 or various compounds. Free ^3 H-LTB4 was separated from PMNLs-bound ligands by vacuum filteration through Whatman GF/B or C glass fiber filters. The filters were then washed rapidly 4 times with 2.5 ml of the ice-cold phosphate buffered saline. The radioactivity retained in the filter was determined by liquid scintillation counting. Specific binding was defined as the difference between total binding and binding in the presence of 3 μM LTB4 (nonspecific binding). The inhibitory effect of specific ^3 H-LTB4 binding was calculated from the following equation.
The percentage of inhibition (%)=100-(B1 /B0 ×100)
B1 : specific ^3 H-LTB4 binding in presence of antagonist
B0 : specific ^3 H-LTB4 binding in absence of antagonist

T1 sequence (Q15722 whole entry): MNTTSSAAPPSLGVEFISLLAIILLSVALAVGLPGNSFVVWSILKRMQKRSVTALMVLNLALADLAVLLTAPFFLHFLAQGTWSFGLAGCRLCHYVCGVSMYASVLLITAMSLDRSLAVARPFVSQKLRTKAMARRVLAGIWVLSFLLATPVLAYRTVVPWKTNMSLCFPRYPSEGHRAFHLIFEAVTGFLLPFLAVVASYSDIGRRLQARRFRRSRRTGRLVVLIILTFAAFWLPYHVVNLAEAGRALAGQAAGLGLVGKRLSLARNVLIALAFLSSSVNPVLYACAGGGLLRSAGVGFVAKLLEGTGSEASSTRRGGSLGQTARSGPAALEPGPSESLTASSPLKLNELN

Structure (SMILES)	IC50 (Human PMNLs) [nM]	IC50 (human PMNL LTB4 receptor) [nM]	LD50 ([1]; intravenous administration) [mg/kg]	LD50 ([1]; oral administration) [mg/kg]
COc1ccc(/C=C/CCCCOc2cccc(OCCCCC(=O)O)c2CCC(=O)O)cc1 [31 (a), 3-[1-[6-(4-methoxyphenyl)hex-5E-enyl]oxy-3-(4-carboxylbutyl)oxybenzen-2-yl]propionic acid]	1900	–	260	2200
COc1ccc(/C=C/CCCCOc2cccc(OCCCCC(=O)N(C)C)c2CCC(=O)O)cc1 [Example 30, 3-[1-[6-(4-methoxyphenyl)hex-5E-enyl]oxy-3-(4-dimethylaminocarbonylbutyl)oxybenzen-2-yl]propionic acid]	840	16	175	3900
COc1ccc(/C=C/CCCCOc2cccc(C(=O)CCCCC(=O)O)c2CCC(=O)O)cc1 [Example 37, 3-[1-[6-(4-methoxyphenyl)hex-5E-enyl]oxy-3-(1-oxo-5-carboxylpentyl)benzen-2-yl]propionic acid]	1700	6	–	–
COc1ccc(/C=C/CCCCOc2cccc(C(O)CCCCC(=O)O)c2CCC(=O)O)cc1 (stereo not drawn) [Example 38, 3-[1-[6-(4-methoxyphenyl)hex-5E-enyl]oxy-3-(1-hydroxy-5-carboxylpentyl)benzen-2-yl]propionic acid]	4900	120	–	–

Further lines, with some results ahead:

IC50 (Human PMNLs) [nM]	IC50 (human PMNL LTB4 receptor) [nM]	Structure (SMILES)	LD50 ([1]; intravenous administration) [mg/kg]	LD50 ([1]; oral administration) [mg/kg]
7000	90	COc1ccc(/C=C/CCCCOc2ccc(OCCCCC(=O)N(C)C)cc2CCC(=O)O)cc1 [Example 16, 3-[1-[6-(4-methoxyphenyl)hex-5E-enyl]oxy-4-(4-dimethylaminocarbonyl-n-butyl)oxybenzen-2-yl]propionic acid]	–	–
2000	3.6	COc1ccc(/C=C/CCCCOc2ccc(C(O)CCCC(=O)N(C)C)cc2CCC(=O)O)cc1 (stereo not drawn) [Example 20, 3-[1-[6-(4-methoxyphenyl)hex-5E-enyl]oxy-4-(1-hydroxy-4-dimethylaminocarbonylbutyl)benzen-2-yl]propionic acid]	–	–
6000	40	COc1ccc(/C=C/CCCCOc2cccc(OCCCC(=O)O)c2CCC(=O)O)cc1 [Example 31, 3-[1-[6-(4-methoxyphenyl)hex-5E-enyl]oxy-3-(3-carboxylpropyl)oxybenzen-2-yl]propionic acid]	–	–
5400	50	COc1ccc(/C=C/CCCCOc2cccc(NC(=O)CCCC(=O)N(C)C)c2CCC(=O)O)cc1 [Example 32, 3-[1-[6-(4-methoxyphenyl)hex-5E-enyl]oxy-3-(4-dimethylaminocarbonylbutanamido)benzen-2-yl]propionic acid]	–	–
810	20	COc1ccc(/C=C/CCCCOc2cccc(CCCCCC(=O)N(C)C)c2CCC(=O)O)cc1 [Example 34, 3-[1-[6-(4-methoxyphenyl)hex-5E-enyl]oxy-3-(5-dimethylaminocarbonylpentyl)benzen-2-yl]propionic acid]	–	–
